Source: patent US6121274A, “Dihydrobenzofurane” (Byk Gulden Lomberg Chemische Fabrik GmbH, priority 1994, dated 2000)

Tested on: PDE IV
Experiment: Inhibition of PDE IV activity (Bauer and Schwabe method adapted to microtiter plates)
Type: biochemical
Conditions: Table A; two-step PDE / 5'-nucleotidase assay, ion-exchange separation

| Structure (SMILES) | Inhibition of PDE IV activity, -log IC50 |
| --- | --- |
| COc1ccc(C(=O)Nc2c(Cl)cncc2Cl)c2c1OC(C)(C)C2 [Compound 1, 2,3-Dihydro-2,2-dimethyl-7-methoxybenzofuran-4-carboxylic acid-N-3,5-dichloro-4-pyridylamide] | 8.47 |
| COc1ccc(C(=O)Nc2c(Cl)cncc2Cl)c2c1OC1(CCCC1)C2 [Compound 2, 2,3-Dihydro-7-methoxybenzofuran-2-spiro-1'-cyclopentan-4-carboxylic acid-N-3,5-dichloro-4-pyridylamide] | 9.42 |
| O=C(Nc1c(Cl)cncc1Cl)c1ccc(OC(F)F)c2c1CC1(CCCC1)O2 [Compound 3, 7-Difluoromethoxy-2,3-dihydrobenzofuran-2-spiro-1'-cyclopentane-4-carboxylic acid-N-3,5-dichloro-4-pyridylamide] | 9.87 |
| COc1ccc(C(=O)Nc2c(Cl)cncc2Cl)c2c1OC1(CCCCC1)C2 [Compound 4, 2,3-dihydro-7-methoxybenzofuran-2-spiro-1'-cyclohexane-4-carboxylic acid-N-3,5-dichloro-4-pyridylamide] | 9.09 |
| COc1ccc(C(=O)Nc2c(Cl)cncc2Cl)c2c1OC1(CCOCC1)C2 [Compound 5, 2,3-Dihydro-7-methoxybenzofuran-2-spiro-1'-(4'-oxacyclohexane)-4-carboxylic acid-N-3,5-dichloro-4-pyridylamide] | 8.57 |
| CCC1(CC)Cc2c(C(=O)Nc3c(Cl)cncc3Cl)ccc(OC)c2O1 [Compound 6, 2,2-Diethyl-2,3-dihydro-7-methoxybenzofuran-4-carboxylic acid-N-3,5-dichloro-4-pyridylamide] | 8.63 |
| COc1ccc(C(=O)Nc2c(Cl)cccc2Cl)c2c1OC1(CCCC1)C2 [Compound 7, 2,3-Dihydro-7-methoxybenzofuran-2-spiro-1'-cyclopentane-4-carboxylic acid-2,6-dichloroanilide] | 8.57 |
| COc1ccc(C(=O)Nc2c(F)cccc2F)c2c1OC1(CCCC1)C2 [Compound 8, 2,3-Dihydro-7-methoxybenzofuran-2-spiro-1'-cyclopentane-4-carboxylic acid-2,6-difluoroanilide] | 8.42 |
